The subject of assay [1] is human blood vessel endothelial (HMEC-1) cells. Briefly: Proliferation assay (ATPLITE), HMEC-1. Type of assay: cell-based. The note with it: FIGS. 3E, 3F, 6. An excerpt:
(§1) Proliferation response profiles of apelin, salcut-NH2, salcut-Gly, and/or salcut-OH on a variety of endothelial and tumor cell lines or primary endothelial cells were obtained using the following method. Human blood vessel endothelial cells (HMEC-1), human primary microvascular dermal EC (dB1), human lymphatic endothelial cells (LEC), human mast cells (HMC-1), human breast cancer cells (MCF-7; T47D), human gastric cancer cells (HTB 103), human lung cancer cells (A549), monkey endothelial cells (CRL 1780), and porcine aortic endothelial cells (PAE) were seeded at 25,000 cells per well at 50 μl volume in appropriate media containing 0.5% serum in a 96 well plate. After overnight incubation the peptide was added in serum free media and cells were incubated for 3-5 days. To measure growth proliferation, the adenosine triphosphate ATPLITE™ one-step assay (PerkinElmer), which is based on firefly luciferase and has high sensitivity for quantification of viable cells, was used. Data were expressed as mean plus minus standard deviation. Statistical analyses were performed using Student's t-test, p values less than 0.05 were considered statistically significant.
Endothelial cell proliferation assays were performed as described above with both spontaneously immortalized porcine aortic endothelial (PAE) cells and SV40 immortalized human dermal microvascular endothelial (HMEC-1).
A general note: ATP-based viability assays read luminescence as a measure of living cells.

The subject of assay [2] is endothelial and tumor cell lines or primary endothelial cells. Briefly: Proliferation response (ATPLITE one-step assay) on a variety of endothelial and tumor cell lines. Type of assay: cell-based. The note with it: 3E.
From the text: as §1

Assay [3] relates to human lung cancer cell line A549. Nature of the assay: Proliferation assay (ATPLITE), A549. Type of assay: cell-based.
From the text: as §1

Assay [4] has as its system human breast cancer cell line MCF-7. Nature of the assay: Proliferation assay (ATPLITE), MCF-7. In kind it is cell-based. The note with it: 1 nM to 1 μM dose range; FIG. 4A.
From the text: as §1

Assay [5] relates to human gastric cancer cell line HTB-103. Briefly: Proliferation assay (ATPLITE), HTB 103. In kind it is cell-based. To be noted: FIG. 5.
From the text: as §1

In assay [6] the test system is human mast cell line HMC-1. Nature of the assay: Proliferation assay (ATPLITE), HMC-1. Type of assay: cell-based. To be noted: FIG. 5.
From the text: as §1

Assay [7] concerns human breast cancer cell line MDA-MB-435. Briefly: Proliferation assay, MDA-MB-435. The note with it: for proliferative response over dose range: dose range of 1 nM to 1 uM; for relative potency in proliferation assays: salcut-NH2 of two manufacturers vs biotinylated salcut, FIG. 14A-14C. Type of assay: cell-based. An excerpt: An N-terminal biotinylated salcut-NH2 ligand was synthesized (a single biotin moiety was attached to the amino-terminal leucine residue). Validity of the chemical composition of the biotinylated salcut-NH2 was accomplished using amino acid sequence analysis and MADLI-TOF mass spectrometry characterization.

Assay [8] concerns porcine aortic endothelial (PAE) cells. Briefly: In vitro tube formation assay. In kind it is cell-based. As for the experimental part: Porcine aortic endothelial (PAE) cells were stably transfected with Green Fluorescent Protein (GFP) and seeded at a concentration of 18,000 cells per well of a 96-well culture plate. The wells were coated with […] basement membrane matrix (Invitrogen, CA). Cells were resuspended in medium at a concentration of 2.25×10^5 to 2.5×10^5 cells/ml. An […] (18,000-20,000) cells were added per well. Positive control cells were cultured with medium supplemented with 1.0% fetal bovine serum (FBS). Negative control cells were cultured with serum-free medium. […] After three or more hours of incubation, cells were assessed for tube formation and were photographed. Assays were performed in triplicate.

In another assay the test system is rat aortic ring. Briefly: Rat aortic ring assay (vessel outcropping). Type of assay: cell-based. As for the experimental part: On day 0, rats were euthanized and decapitated, and aortas were harvested and transferred to a culture dish containing EGM-2 with growth factors (20 ml media; Clonetics). Fibroadipose tissue and other non-aortic tissue were removed. Using dissecting microscope, the aorta was sectioned into 1 mm-long rings. Aortic rings were then rinsed 6-8× with EGM-2 with growth factors. Aortic rings were each placed in the center of a matrix (GELTREX™; Invitrogen Corp)-coated culture well. Aortic tissue was covered with 250 μl GELTREX™ and each well was incubated with 1 ml EGM-2 with growth factors supplemented for 24 hours at 37° C., 5% CO2.
On day 1, media with growth factors was removed, 250 μl of media (without growth factors) with either 0.1 nM, 1.0 nM, or 10 nM of salcut-NH2 was added to each well and incubated at 37° C., 5% CO2 for 5-7 days.

For assay [9], the system named is A549 human bronchioloalveolar cancer cells. Nature of the assay: Nude mouse xenograft study. Type of assay: in vivo, nude mice. To be noted: 10 μM. On the procedure:
(§2) Six week old female nude mice were used in this study; ten mice were used per test group. A549 human bronchioloalveolar cancer cells were cultured at the SAIC/Frederick facility. 1×10^7 A549 cells were injected subcutaneously in the hindquarter of each nude mouse. The following treatment regime was started seven days following tumor injection: Group 1—PBS control; Group 2—salcut-NH2 peptide (10 μM). Appropriate Groups were treated with 25 μl injections at four corners around the tumor, three times per week for five weeks. Mice were inspected, weighed, and tumors measured (H×W×L) three times per week with calipers. Following completion of the experiment, mice were euthanized, tumors excised, and cut into four pieces. Two segments were frozen and stored at −80° C. and two segments were paraffin embedded for pathology.
as §2, with “In another experiment, six” for “Six”, “(10 pM); Group 3—salcut-NH2 peptide (10 nM); Group 4—salcut-NH2 peptide (10” for “(10”, “100” for “25”, “intraperitoneally,” for “at four corners around the tumor,”, “four” for “five”

Another assay deals with MDA-MB-345 cells. Briefly: Binding of biotinylated salcut-NH2 to cells (fluorescent labeling). In kind it is cell-based, human.
Assay [10] addresses T1, apelin G protein receptor (known as APJ) (Homo sapiens, UniProt P35414).
T1 sequence (P35414 1-380): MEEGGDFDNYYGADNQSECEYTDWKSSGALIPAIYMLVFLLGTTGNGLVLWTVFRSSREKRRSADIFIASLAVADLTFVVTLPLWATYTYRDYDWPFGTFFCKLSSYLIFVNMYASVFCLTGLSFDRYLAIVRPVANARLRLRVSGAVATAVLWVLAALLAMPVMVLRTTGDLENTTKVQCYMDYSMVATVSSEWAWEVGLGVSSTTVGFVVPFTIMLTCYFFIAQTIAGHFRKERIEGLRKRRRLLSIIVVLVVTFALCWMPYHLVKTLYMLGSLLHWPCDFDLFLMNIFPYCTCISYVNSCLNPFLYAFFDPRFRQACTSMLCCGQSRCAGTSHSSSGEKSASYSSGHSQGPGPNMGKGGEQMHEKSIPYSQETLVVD
To be noted: Tatemoto et al. 1998; cited from earlier work.

Another assay addresses T2, APJ receptor (Homo sapiens, UniProt P35414).
T2 sequence (P35414 1-380): T1 sequence (P35414 1-380)
To be noted: cited from earlier work.

“Also recorded” adds a separate entry of the source. Where no end group is shown, it is not given here. The star is where a group is joined. Biotin = O=C1N[C@H]2[C@H](CS[C@H]2CCCCC(=O)*)N1 Where only a bound is given, the exact number is not on record here.

For “salcut-OH: human apelin-36 (42-57), the free-acid derivative of salcut (LVQPRGSRNGPGPWQG-OH)”, the “effect on HMEC-1 proliferation” value in [1] was “minor effect on proliferation; also recorded: do not have a statistically significant effect on cell growth”; in assay [1] (listed as Salcut-OH) it was “non-responsive over the dose range tested”; in assay [1] (listed as salcut OH), “no effect on HMEC-1 cell proliferation”.
“salcut-Gly: glycine-extended form of human apelin-36 (42-57) (LVQPRGSRNGPGPWQGG; homo sapiens)”: the “effect on HMEC-1 proliferation” value is reported as “non-responsive over the dose range tested; also recorded: minor effect on proliferation; also recorded: do not have a statistically significant effect on cell growth” in assay [1] and “no effect on HMEC-1 cell proliferation” in [1] (listed as salcut Gly).
“salcut-NH2: amide derivative of human apelin-36 (42-57), sixteen amino acid peptide from residues 42-57 of apelin preproprotein (LVQPRGSRNGPGPWQG-NH2)”: the “concentration having a suppressive effect on cell proliferation” value in assay [2] (FIGS. 3A-3D, 3G, 3I-3O) is reported as ≥ 10 nM. Further, the “cell proliferation (relative luminescent units [RLU])” value in [2] (compared to cells cultured in the absence of these compounds (0 Rx), FIGS. 3A-3C, 3G-3O) was “increases”. In addition, the “effect on proliferation (stimulation)” value in [3] (10 nM to 100 pM range, FIG. 3D) was “neither apelin-13 (65-77) nor salcut-NH2 affect proliferation; also recorded: does not stimulate proliferation”. Also, the “effect on proliferation at higher concentrations” value in assay [3] (higher concentrations, 1 nM to 1 μM dose range (FIG. 4B)) is “lack of a statistically significant proliferative response; also recorded: cell growth suppressive effect at higher concentrations; also recorded: did not respond in a statistically significant manner”. In addition, in assay [1], the “effect on HMEC-1 proliferation” value is “biphasic response curve; also recorded: potent stimulators of HMEC-1 proliferation; also recorded: biphasic (rise and fall) response”. The proliferative dose response result in [4] is “biphasic response curve; also recorded: biphasic (rise and fall) response”; in assay [5] it was “biphasic response curves; also recorded: biphasic (rise and fall) response”; in assay [6] it was “biphasic response curves; also recorded: only responded to lower concentrations of salcut-NH2 by stimulating proliferation”. In [7], the “proliferative response over dose range” value is recorded as “large change in response”. Further, in [7], the “relative potency in proliferation assays” value is listed as “equipotent in proliferation assays”. Also, in assay [8], the “concentration at which a suppressive effect on tube formation was observed” value is reported as “exceeding 10 nM”. In addition, the “number of vessels forming from the aortic ring” value in the assay with rat aortic ring (0.1 nM, 1.0 nM, 10 nM, 5-7 days, FIG. 9) is on record as “number of vessels formed increase with increasing concentration; also recorded: increased number of vessels forming from the aortic ring”. The “vessel formation within the aortic ring” value in the assay with rat aortic ring (10 nM dose) is given as “Vessels begin to form with the ring; also recorded: vessels were beginning to form within the aortic ring”. Further, the tumor growth entry in [9] (10 pM, 10 nM, 100 μl intraperitoneally, three times per week for four weeks, compared to PBS, FIG. 12) is “reduced tumor growth”; in [9] (25 μl injections at four corners around the tumor, three times per week for five weeks, compared to PBS), “dramatic reduction in tumor growth”; in [9] (100 μl intraperitoneally, three times per week for four weeks), “highly statistically significant (<0.005) suppression of tumor growth”. The “inhibition of binding of biotinylated salcut-NH2 to cells” value with MDA-MB-345 cells (unlabeled peptide in the presence of biotinylated salcut-NH2) is on record as “can be inhibited”.
For the substance apelin-17, the “potency of peptide-induced acidification rates” value in assay [10] is “moderately potent”. Moreover, the “binding to the APJ receptor” value on APJ receptor is on record as “can bind the APJ receptor”.
“biotinylated salcut: N-terminal biotinylated salcut-NH2 ligand; a single biotin moiety attached to the amino-terminal leucine residue (Biotin-LVQPRGSRNGPGPWQG-NH2; SMILES CC(C)C[C@H](NC(=O)CCCC[C@@H]1SC[C@@H]2NC(=O)N[C@@H]21)C(=O)N[C@H](C(=O)N[C@@H](CCC(N)=O)C(=O)N1CCC[C@H]1C(=O)N[C@@H](CCCNC(=N)N)C(=O)NCC(=O)N[C@@H](CO)C(=O)N[C@@H](CCCNC(=N)N)C(=O)N[C@@H](CC(N)=O)C(=O)NCC(=O)N1CCC[C@H]1C(=O)NCC(=O)N1CCC[C@H]1C(=O)N[C@@H](Cc1c[nH]c2ccccc12)C(=O)N[C@@H](CCC(N)=O)C(=O)NCC(N)=O)C(C)C)”: in [7], the “proliferative response over dose range” value is “large change in response” and the “relative potency in proliferation assays” value is given as “equipotent in proliferation assays”. In the assay with MDA-MB-345 cells, the “binding to cells (fluorescent labeling)” value was “high intensity fluorescent labeling”.
Consider (Ala13)-apelin-13 [reference compound], for which the “effect of antagonist on endothelial cell tube formation” value in [8] (in the presence of 1 nM apelin-13, FIG. 8) was “inhibited endothelial cell tube formation”.

(Values after US8946382B2, “Apelin peptides and methods of use” (The United States of America, as represented by the …, priority 2009, dated 2015).)
